Reference: PMC8962522, “Direct interaction of TrkA/CD44v3 is essential for NGF-promoted aggressiveness of breast cancer cells” (Journal of Experimental & Clinical Cancer Research : CR, 2022)

Legend:
[1] = system: MDA-MB-231 cell metastasis; experiment: Metastasis of MDA-MB-231 xenografts (PCR of human microglobulin); assay type: in vivo, SCID mice; settings: lung, brain and liver; mice sacrificed when primary tumors reached the same size
Description: MDA-MB-231 cells (2 × 10^6) were subcutaneously injected into the flanks of six-week-old female SCID mice. One month after injection, the mice were randomized into 2 groups and injected near the tumor with CD44v3 mimetic peptide 4 (P4) or not (control) five times in a 3-day interval. Tumor volume was determined throughout the experiment by measuring the length (l) and width (w) and was calculated as π/6 × l × w × […]. Animals were sacrificed using isoflurane anesthesia when the tumors reached a similar size, and the organs were immediately removed and stored in liquid nitrogen.
Each organ was placed in a Precellys tube with QIAzol (1 mL) for lysis using a Precellys machine (3×). […]
To assess the role of TrkA/CD44v3 in vivo, SCID mice were injected with MDA-MB-231 cells to generate xenografts. Primary tumor development and metastasis (to the lung, brain and liver) were analyzed (Fig. 6). […] The development of primary tumors was measured throughout the experiments. […] We also assessed the metastatic burden. […] Micrometastases were detected at the end of the experiment by PCR of human microglobulin in xenograft mice treated with or without the CD44v3 mimetic peptide (Fig. 6E). […]
Fig. 6 CD44v3 mimetic peptide 4 blocks MDA-MB-231 tumor growth and metastasis. […] Body weight (B) and tumor volume (C) were measured following CD44v3 mimetic peptide administration (10 mice per group). […]

[2] = system: TrkA phosphorylation; experiment: Western blot of TrkA phosphorylation; assay type: cell-based
Description: To further elucidate the mechanism of action of CD44v3 mimetic peptide 4, we studied its effect on the TrkA signaling pathway. First, we performed western blot analysis to determine the effect of mimetic peptide 4 on TrkA phosphorylation (Fig. 5A). […] Therefore, we performed acceptor (photo) bleaching (AB)-FRET to examine the effect of CD44v3 mimetic peptide 4 on NGF-induced RhoA activity in MDA-MB-231 cells transfected with a RhoA FRET biosensor [18] (Fig. 5B). […] Additionally, to confirm that this effect was independent of TrkA phosphorylation, we measured RhoA activation in MDA-MB-231 cells expressing dead TrkA kinase, which cannot be phosphorylated (Fig. 5D). […] Furthermore, a similar decrease in RhoA activation was obtained using the TrkA-H112A mutation, which also prevents the formation of the TrkA/CD44v3 complex in the absence or presence of the TrkA kinase inhibitor k252A (Supplementary Fig. 11B & C, Supplementary Video 1 & 2).
Fig. 5 CD44v3 is implicated in the phospho-TrkA-independent activation of RhoA GTPase. Phosphorylation of TrkA was measured in the presence of a scramble peptide or CD44v3 mimetic peptide 4 (P4) in the presence or absence of NGF (A). Schematic representation of the Rho biosensor; (B). […] Phosphorylation of TrkA and downstream Akt in wild-type MDA-MB-231 and MDA-MB-231 cells expressing kinase-dead TrkA, as determined by western blotting (D). […]

Sequence: IDDDEDFISST [Peptide 4, mimetic peptide 4 (…) corresponding to the C-terminal region of CD44v3]
- metastatic burden (in words) [1]: decreased the metastatic burden at each analyzed location
- effect on NGF-induced TrkA phosphorylation [2]: did not inhibit TrkA phosphorylation induced by NGF
